Assay results taken from ChEMBL document CHEMBL3352305, “Podoverine A--a novel microtubule destabilizing natural product from the Podophyllum species” (Bioorg Med Chem, 2014).
Calls of active or inactive are those of the source. The rule behind the calls is not given here.

Experiments:
HeLa [1] = assay: Mitotic arrest in human HeLa cells assessed as increase in accumulation at G2/M phase at 1 uM for 24 hrs by PI staining/FACS analysis; format: functional, cell-based
MCF7 [2] = assay: Cell cycle arrest in human MCF7 cells assessed as 2N stage DNA at 1 uM for 20 hrs by PI staining/FACS analysis (reference value: 31.6 no unit); format: functional
[3] = Cell cycle arrest in human PC3 cells assessed as 4N stage DNA at 1 uM for 20 hrs by PI staining/FACS analysis (Rvb =34.4 no unit); format: functional, cell-based; settings: PC-3
MCF7 [4] = assay: Cell cycle arrest in human MCF7 cells assessed as >4N stage DNA at 1 uM for 20 hrs by PI staining/FACS analysis (Rvb =23.8 no unit); format: functional
[5] = Cell cycle arrest in human PC3 cells assessed as 2N stage DNA at 1 uM for 20 hrs by PI staining/FACS analysis (reference value: 42 no unit); format: functional, cell-based; settings: PC-3
MCF7 [6] = assay: Cell cycle arrest in human MCF7 cells assessed as 4N stage DNA at 1 uM for 20 hrs by PI staining/FACS analysis (Rvb =40.8 no unit); format: functional
HeLa [7] = assay: Cell cycle arrest in human HeLa cells assessed as <2N stage DNA at 1 uM for 20 hrs by PI staining/FACS analysis (reference value: 2.19 no unit); format: functional
HeLa [8] = assay: Cell cycle arrest in human HeLa cells assessed as 4N stage DNA at 1 uM for 20 hrs by PI staining/FACS analysis (reference value: 24.8 no unit); format: functional
HeLa [9] = assay: Cell cycle arrest in human HeLa cells assessed as >4N stage DNA at 1 uM for 20 hrs by PI staining/FACS analysis (reference value: 14.2 no unit); format: functional
MCF7 [10] = assay: Cell cycle arrest in human MCF7 cells assessed as <2N stage DNA at 1 uM for 20 hrs by PI staining/FACS analysis (reference value: 0.39 no unit); format: functional
HeLa [11] = assay: Cell cycle arrest in human HeLa cells assessed as 2N stage DNA at 1 uM for 20 hrs by PI staining/FACS analysis (reference value: 58 no unit); format: functional
[12] = Cell cycle arrest in human PC3 cells assessed as <2N stage DNA at 1 uM for 20 hrs by PI staining/FACS analysis (reference value: 0.59 no unit); format: functional, cell-based; settings: PC-3
[13] = Cell cycle arrest in human PC3 cells assessed as >4N stage DNA at 1 uM for 20 hrs by PI staining/FACS analysis (Rvb =23 no unit); format: functional, cell-based; settings: PC-3
HeLa [14] = assay: Mitotic arrest in human HeLa cells assessed as structure at 3 uM for 60 mins and measured after 20 hrs of washout by FITC staining; format: functional, cell-based
[15] = Cell cycle arrest in human PC3 cells assessed as 2N stage DNA at 5 uM for 20 hrs by PI staining/FACS analysis (reference value: 42 no unit); format: functional, cell-based; settings: PC-3
HeLa [16] = assay: Mitotic arrest in human HeLa cells assessed as structure at 3 uM for 60 mins and measured after 20 hrs of washout and applied 3 uM after washout by FITC staining; format: functional, cell-based
BSC-1 [17] = assay: Inhibition of repolymerization of microtubule in cold treated African green monkey BSC1 cells at 5 uM for 20 hrs by DAPI staining; format: cell-based; settings: Chlorocebus aethiops
Tubulin (Sus scrofa) = Tubulin (Sus scrofa) (UniProt P02554+P02550); assay: Inhibition of porcine brain tubulin polymerization at 50 uM by turbidity assay
[18] = Cell cycle arrest in human PC3 cells assessed as >4N stage DNA at 5 uM for 20 hrs by PI staining/FACS analysis (Rvb =23 no unit); format: functional, cell-based; settings: PC-3
BSC-1 [19] = assay: Mitotic arrest in African green monkey BSC1 cells assessed as accumulation of round cells with intense stained tubulin and DNA structures at 3 uM for 20 hrs by FITC/TRITC staining; format: functional, cell-based; settings: Chlorocebus aethiops
[20] = Cell cycle arrest in human PC3 cells assessed as 4N stage DNA at 5 uM for 20 hrs by PI staining/FACS analysis (Rvb =34.4 no unit); format: functional, cell-based; settings: PC-3
HeLa [21] = assay: Cell cycle arrest in human HeLa cells assessed as 2N stage DNA at 5 uM for 20 hrs by PI staining/FACS analysis (reference value: 58 no unit); format: functional
HeLa [22] = assay: Mitotic arrest in human HeLa cells assessed as cells devoid of mitotic spindles at 3 uM for 20 hrs by FITC/TRITC staining; format: functional, cell-based
Tubulin (Homo sapiens) [23] = molecular target: T1, Tubulin (Homo sapiens) (UniProt P68371+Q9H4B7+P0DPH7+P68366+Q13509+Q71U36+P04350+Q3ZCM7+P07437+P68363+Q9BQE3+Q6PEY2+Q13885+Q9BVA1+Q9BUF5); assay: Displacement of colchicine from tubulin (unknown origin) by FITC staining; format: protein-complex assay
HeLa [24] = assay: Mitotic arrest in human HeLa cells assessed as cells with condensed chromosomes not aligned to metaphase plate at 3 uM for 20 hrs by FITC/TRITC staining; format: functional, cell-based
HeLa [25] = assay: Mitotic arrest in human HeLa cells assessed as accumulation of round cells with intense stained tubulin and DNA structures at 3 uM for 20 hrs by FITC/TRITC staining; format: functional, cell-based
HeLa [26] = assay: Cell cycle arrest in human HeLa cells assessed as <2N stage DNA at 5 uM for 20 hrs by PI staining/FACS analysis (reference value: 2.19 no unit); format: functional
MCF7 [27] = assay: Cell cycle arrest in human MCF7 cells assessed as >4N stage DNA at 5 uM for 20 hrs by PI staining/FACS analysis (Rvb =23.8 no unit); format: functional
MCF7 [28] = assay: Cell cycle arrest in human MCF7 cells assessed as 4N stage DNA at 5 uM for 20 hrs by PI staining/FACS analysis (Rvb =40.8 no unit); format: functional
[29] = Cell cycle arrest in human PC3 cells assessed as <2N stage DNA at 5 uM for 20 hrs by PI staining/FACS analysis (reference value: 0.59 no unit); format: functional, cell-based; settings: PC-3
Tubulin (Homo sapiens) [30] = molecular target: T1, Tubulin (Homo sapiens); assay: (§1) Displacement of BODIPY-FL-vinblastine from tubulin (unknown origin); format: protein-complex assay
Tubulin = assay: as §1; format: protein-complex assay, Homo sapiens
HeLa [31] = assay: Mitotic arrest in human HeLa cells assessed as increase in accumulation at G2/M phase at 5 uM for 24 hrs by PI staining/FACS analysis; format: functional, cell-based
MCF7 [32] = assay: Cell cycle arrest in human MCF7 cells assessed as <2N stage DNA at 5 uM for 20 hrs by PI staining/FACS analysis (reference value: 0.39 no unit); format: functional
HeLa [33] = assay: Cytotoxicity against human HeLa cells assessed as inhibition of cell viability after 24 hrs by WST1 assay; format: functional, cell-based
HeLa [34] = assay: Cell cycle arrest in human HeLa cells assessed as >4N stage DNA at 5 uM for 20 hrs by PI staining/FACS analysis (reference value: 14.2 no unit); format: functional
HeLa [35] = assay: Cell cycle arrest in human HeLa cells assessed as 4N stage DNA at 5 uM for 20 hrs by PI staining/FACS analysis (reference value: 24.8 no unit); format: functional
MCF7 [36] = assay: Cell cycle arrest in human MCF7 cells assessed as 2N stage DNA at 5 uM for 20 hrs by PI staining/FACS analysis (reference value: 31.6 no unit); format: functional

Tubulin (Sus scrofa), sequence (P02550 whole entry, looked up): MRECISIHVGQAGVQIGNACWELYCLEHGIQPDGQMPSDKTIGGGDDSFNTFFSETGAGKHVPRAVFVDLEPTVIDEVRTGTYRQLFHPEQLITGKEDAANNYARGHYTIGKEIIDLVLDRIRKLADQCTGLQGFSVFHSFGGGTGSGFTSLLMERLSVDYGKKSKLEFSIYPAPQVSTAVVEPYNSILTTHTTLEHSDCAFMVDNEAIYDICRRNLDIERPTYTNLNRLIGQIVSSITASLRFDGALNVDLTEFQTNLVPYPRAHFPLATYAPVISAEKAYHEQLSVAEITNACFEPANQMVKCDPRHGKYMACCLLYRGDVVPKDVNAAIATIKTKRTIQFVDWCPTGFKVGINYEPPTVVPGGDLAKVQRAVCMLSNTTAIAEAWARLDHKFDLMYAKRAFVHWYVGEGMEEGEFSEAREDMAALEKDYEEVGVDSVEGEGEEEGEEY
Tubulin (Sus scrofa), sequence (P02554 whole entry, looked up): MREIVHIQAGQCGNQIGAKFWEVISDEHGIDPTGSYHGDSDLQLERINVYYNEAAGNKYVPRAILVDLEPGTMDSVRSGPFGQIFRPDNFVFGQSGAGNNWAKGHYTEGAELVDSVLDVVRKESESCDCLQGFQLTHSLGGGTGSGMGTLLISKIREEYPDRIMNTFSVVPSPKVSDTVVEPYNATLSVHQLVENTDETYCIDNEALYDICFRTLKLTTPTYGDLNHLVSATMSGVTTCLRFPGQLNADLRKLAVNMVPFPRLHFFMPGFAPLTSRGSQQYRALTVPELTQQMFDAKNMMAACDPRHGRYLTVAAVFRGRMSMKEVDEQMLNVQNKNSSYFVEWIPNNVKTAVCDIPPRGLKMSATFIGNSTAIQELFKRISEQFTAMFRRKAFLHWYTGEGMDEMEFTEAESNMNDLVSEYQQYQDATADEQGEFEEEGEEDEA

In the case of COC(=O)Nc1nc2cc(C(=O)c3cccs3)ccc2[nH]1 [NOCODAZOLE], the Activity (HeLa [1]) is reported as “Active”, the Flu intensity (MCF7 [2]) is reported as 9.16 and the Flu intensity [3] is reported as 51.7. The Flu intensity (MCF7 [4]) was 30.7, the Flu intensity [5] was 7.64 and the Flu intensity (MCF7 [6]) was 57.5. It also gave a Flu intensity (HeLa [7]) of 9.75, a Flu intensity (HeLa [8]) of 64.7 and a Flu intensity (HeLa [9]) of 16.9. The Flu intensity (MCF7 [10]) was 0.72, the Flu intensity (HeLa [11]) was 8.61 and the Flu intensity [12] was 10.7. For the same compound, the Flu intensity [13] was 29.4.
For COc1c(-c2ccc(O)c(O)c2CC=C(C)C)oc2cc(O)cc(O)c2c1=O, the Activity (HeLa [14]) was “inactive”, the Flu intensity [15] was 9.24 and the Activity (HeLa [16]) was “Active”. The inhibition (BSC-1 [17]) was “Active”, the inhibition (Tubulin (Sus scrofa)) was “Active” and the Flu intensity (MCF7 [2]) was 32. For the same compound, the Flu intensity [3] was 42, the Flu intensity [18] was 30.8 and the Activity (BSC-1 [19]) was “Active”. For the same compound, the Flu intensity [20] was 47.5, the Flu intensity (HeLa [21]) was 9.6 and the Activity (HeLa [22]) was “Active”. For the same compound, the Flu intensity (MCF7 [4]) was 29.6, the Activity (Tubulin (Homo sapiens) [23]) was “inactive” and the Flu intensity [5] was 27.6. The Activity (HeLa [24]) was “Active”, the Flu intensity (MCF7 [6]) was 36.3 and the Activity (HeLa [25]) was “Active”. For the same compound, the Flu intensity (HeLa [26]) was 9.84, the Flu intensity (MCF7 [27]) was 27 and the Flu intensity (MCF7 [28]) was 61.5. For the same compound, the Flu intensity (HeLa [7]) was 5.6, the Flu intensity [29] was 12.6 and the inhibition (Tubulin (Homo sapiens) [30]) was “Dose-dependent effect”. The EC50 (Tubulin) was 14.7 µM, the Flu intensity (HeLa [8]) was 40.2 and the Activity (HeLa [31]) was “Active”. The Flu intensity (HeLa [9]) was 13.8, the Flu intensity (MCF7 [10]) was 1.07 and the Flu intensity (MCF7 [32]) was 2. The IC50 (HeLa [33]) was 0.79 µM, the inhibition (HeLa [33]) was “Dose-dependent effect” and the Flu intensity (HeLa [11]) was 40.4. The Flu intensity (HeLa [34]) was 21.8, the Flu intensity (HeLa [35]) was 58.2 and the Flu intensity (MCF7 [36]) was 9.57. The Flu intensity [12] was 2.23 and the Flu intensity [13] was 26.5.
